Source: patent US20190307728A1, “METHODS OF TREATMENT WITH A 2,4,5-TRISUBSTITUTED 1,2,4-TRIAZOLONE” (Bayer Pharma Aktiengesellschaft, priority 2018, published 2019)

What was measured:
Assay in all cases: Cell proliferation panel assay
Assay type in all cases: cell-based
[1] = tested on: PANC-1; settings: Homo sapiens, 72 h, PANC-1, Pancreatic cancer, 3-day incubation
Procedure: (§1) Cells were grown in RPMI 1640, 10% FBS, 2 mM L-alanyl-L-glutamine, 1 mM Na pyruvate or a special medium. Cells were seeded into 384-well plates and incubated in a humidified atmosphere of 5% CO2 at 37° C. Compounds were added the day following cell seeding. At the same time, a time zero untreated cell plate was generated. After a 3-day incubation period, cells were fixed and stained to allow fluorescence imaging of nuclei.
(§2) Compounds were serially diluted in half-log steps from the highest test concentration 10 μM, and assayed over 10 concentrations with a maximum assay concentration of 0.1% DMSO. Automated fluorescence microscopy was carried out using a Molecular Devices ImageXpress Micro XL high-content imager, and images were collected with a 4× objective. 16-bit TIFF images were acquired and analyzed with MetaXpress 5.1.0.41 software.
(§3) Cell proliferation was measured by the fluorescence intensity of an incorporated nuclear dye. The output is referred to as the relative cell count, where the measured nuclear intensity is transformed to percent of control (POC) using the following formula: […]
(§4) Cellular response parameters were calculated using nonlinear regression to a sigmoidal single-site dose response model:
(§5) Where y is a response measured at concentration x, A and B are the lower and upper limits of the response, C is the concentration at the response midpoint (EC50), and D is the Hill Slope (Fallahi-Sichani, M., S. Honardejad, L. M. Heiser, J. W. Gray, and P. K. Sorger (2013). Metrics other than potency reveal systematic variation in responses to cancer drugs. Nat. Chem. Biol. 9: 708-714.).
(§6) Cell count IC50 is the test compound concentration at 50% of maximal possible response. EC50 is the test compound concentration at the curve inflection point or half the effective response (parameter C of the fitted curve solution).

[2] = tested on: A498; settings: Homo sapiens, 72 h, A498, Renal cell carcinoma, 3-day incubation
Procedure: as §1, §2, §3, §4, §5, §6

[3] = tested on: G-401; settings: Homo sapiens, 72 h; G-401, Kidney cancer, 3-day incubation; read-out: Cell Count IC50
[4] = tested on: U266B1; settings: 72 h; U266B1, Multiple Myeloma, 3-day incubation; read-out: Cell Count IC50
[5] = tested on: Mia PaCa-2; settings: Homo sapiens, 72 h; Mia PaCa-2, Pancreatic cancer, 3-day incubation; read-out: Cell Count IC50
[6] = tested on: MEG01; settings: Homo sapiens, MEG-01, 72 h; MEG01, Leukemia, 3-day incubation; read-out: Cell Count EC50
[7] = tested on: CaOV3; settings: Homo sapiens, Caov-3, 72 h; CaOV3, Ovarian carcinoma, 3-day incubation; read-out: Cell Count IC50
[8] = tested on: ARH-77; settings: Homo sapiens, 72 h; ARH-77, Leukemia, 3-day incubation; read-out: Cell Count EC50
[9] = tested on: DMS114; settings: Homo sapiens, DMS-114, 72 h; DMS114, Lung cancer, 3-day incubation; read-out: Cell Count IC50
[10] = tested on: HT-29; settings: Homo sapiens, 72 h; HT-29, Colorectal carcinoma, 3-day incubation; read-out: Cell Count IC50
[11] = tested on: CEM-C1; settings: 72 h; CEM-C1, Leukemia, 3-day incubation; read-out: Cell Count EC50
[12] = tested on: SU.86.86; settings: Homo sapiens, 72 h; SU.86.86, Pancreatic cancer, 3-day incubation; read-out: Cell Count IC50
[13] = tested on: Colo 320DM; settings: Homo sapiens, 72 h, Colorectal carcinoma, 3-day incubation, read-out: Cell Count IC50
[14] = tested on: MHH-PREB-1; settings: Homo sapiens, 72 h; MHH-PREB-1, Lymphoma, 3-day incubation; read-out: Cell Count IC50
[15] = tested on: MV-4-11; settings: Homo sapiens, MV4-11, 72 h; MV-4-11, Leukemia, 3-day incubation; read-out: Cell Count IC50

EC50 ([1]; read-out: Cell Count EC50): 3.5 nM
IC50 ([1]; read-out: Cell Count IC50): > 10000 nM
IC50 [4]: > 10000 nM
IC50 [5]: > 10000 nM
IC50 [10]: 11 nM
IC50 [13]: 5.1 nM
IC50 [15]: 1.2 nM
SMILES: CCn1c(CO)nn(-c2cc(O[C@@H](C)C(F)(F)F)c(C(=O)Nc3c(F)cccc3Cl)cc2F)c1=O [Example 1, N-(2-chloro-6-fluorophenyl)-4-[4-ethyl-3-(hydroxymethyl)-5-oxo-4,5-dihydro-1H-1,2,4-triazol-1-yl]-5-fluoro-2-{[(2S)-1,1,1-trifluoropropan-2-yl]oxy}benzamide]
EC50 ([2]; read-out: Cell Count EC50): > 10000 nM
IC50 ([2]; read-out: Cell Count IC50): > 10000 nM
IC50 [3]: > 10000 nM
EC50 [6]: 0.66 nM
IC50 [7]: > 10000 nM
EC50 [8]: 0.92 nM
IC50 [9]: > 10000 nM
EC50 [11]: 0.91 nM
IC50 [12]: > 10000 nM
IC50 [14]: 0.83 nM
